Source: US6384040B1, “Condensed 4-thioxopyrimidine derivatives as microbicides” (Syngenta Crop Protection, Inc., priority 1998, dated 2002)

Experiments:
Uncinula necator = assay: Action against Uncinula necator on vines; format: in vivo; conditions: vine cuttings sprayed with 200 ppm a.i., infected 24 hours later, evaluation ca. 14 days after infection
Experimental: Example B-3: Action Against Uncinula necator on Vines
5 week old vine cuttings are sprayed with a spray mixture (200 ppm a.i.) prepared from a wettable powder formulation of the test compound. The plants are infected 24 hours later by conidias from strongly infested vine leafs that are shaken off over the test plants. The plants are then incubated at 26° C. and 60% relative humidity. The evaluation of the fungal infestation is made ca. 14 days after infection.

Row | melting point [°C] | Compound | control activity (Uncinula necator)
1 | 95 to 97 | CCCCn1c(OCCC)nc2sc(Br)cc2c1=S [Compound 4, 6-bromo-3-butyl-2-propoxy-4-thioxo-thieno[2,3-d]pyrimidine] | complete control activity
2 | 110 to 112 | CCCOc1nc2sc(Br)cc2c(=S)n1CCC [Compound 2, 6-bromo-2-propoxy-3-propyl-4-thioxo-thieno[2,3-d]pyrimidine] | complete control activity
3 | 68 to 70 | CCCCn1c(OCCC)nc2sc(Cl)cc2c1=S [Compound 3, 3-butyl-6-chloro-2-propoxy-4-thioxo-thieno[2,3-d]pyrimidine] | complete control activity
4 |  | CCCOc1nc2sc(Cl)cc2c(=S)n1CCC [Compound 1, 6-Chloro-2-propoxy-3-propyl-4-thioxo-thieno[2,3-d]pyrimidine] | complete control activity
